Here are results for eleven molecules from ChEMBL document CHEMBL3045736, “Cobalt mediated ring contraction reaction of lapachol and initial antibacterial evaluation of naphthoquinones derived from lapachol” (2012).

Values after ≈ are worked out from the molar mass of the structure shown.

Holding throughout (type): functional
One experiment has as its system Escherichia coli. The experiment in a line: Antibacterial activity against Escherichia coli after 24 hr by p-iodonitrotetrazolium assay.
The test system of another experiment is Bacillus cereus. Put plainly: Antibacterial activity against Bacillus cereus after 24 hr by p-iodonitrotetrazolium assay.
Experiment [1] has as its system Mycobacterium tuberculosis. Put plainly: Antimycobacterial activity against Mycobacterium tuberculosis by Bactec TB-460 assay.
Another experiment relates to Staphylococcus aureus. The experiment in a line: Antibacterial activity against Staphylococcus aureus after 24 hr by p-iodonitrotetrazolium assay.

Regarding `CC1(C)CCC2=C(O1)c1ccccc1C(=O)C2=O` [LAPACHONE], the MIC (as a rule, the least concentration at which growth counts as inhibited) is 161 µM with Escherichia coli, 161 µM in the experiment on Bacillus cereus, 20.2 µM (≈ 4.89 µg/mL) in experiment [1] and 161 µM in the experiment with Staphylococcus aureus. Also, the minimal bactericidal concentration (MBC) (as a rule, the lowest tested concentration that kills the bacteria rather than only halting them) in experiment [1] turned out to be 80.7 µM (≈ 19.6 µg/mL).
For `CC(=O)OC=CC1=C(O)C(=O)c2ccccc2C1=O`, the MIC in the experiment on Escherichia coli, in the experiment with Bacillus cereus and against Staphylococcus aureus was over 78.1 µg/mL each time.
Regarding `CC(C)=CCC1=C(O)C(=O)c2ccccc2C1=O` [LAPACHOL], the MIC is over 78.1 µg/mL against Escherichia coli, over 78.1 µg/mL with Bacillus cereus, 161 µM (≈ 39.1 µg/mL) in experiment [1] and over 78.1 µg/mL in the experiment on Staphylococcus aureus. For the same molecule, the MBC in experiment [1] was 646 µM (≈ 156 µg/mL).
In the case of `CC(=O)c1cc2c(o1)C(=O)c1ccccc1C2=O` [NAPABUCASIN], the MIC is over 78.1 µg/mL with Escherichia coli, over 78.1 µg/mL with Bacillus cereus, 40.7 µM (≈ 9.77 µg/mL) in experiment [1] and 326 µM against Staphylococcus aureus. The same molecule yielded an MBC in experiment [1] of 163 µM (≈ 39.1 µg/mL).
Take `NNC(=O)c1ccncc1` [ISONIAZID]: in experiment [1], the MBC was 1.75 µM (≈ 0.24 µg/mL) and the MIC came to 0.88 µM (≈ 0.121 µg/mL).
In the case of GENTAMICIN, the MIC in the experiment on Escherichia coli turned out to be 3.6 µM; in the experiment with Bacillus cereus it was 3.6 µM; in the experiment on Staphylococcus aureus it was 7.2 µM.
Consider `O=CCC1=C(O)C(=O)c2ccccc2C1=O`, for which the MIC in the experiment on Escherichia coli is over 78.1 µg/mL; in the experiment on Bacillus cereus it was over 78.1 µg/mL; in experiment [1], 362 µM (≈ 78.2 µg/mL); in the experiment on Staphylococcus aureus it was over 78.1 µg/mL. Besides, in experiment [1], the MBC came to 723 µM (≈ 156 µg/mL).
For the molecule `C=C(C)C1CC2=C(O1)C(=O)c1ccccc1C2=O` (stereo not drawn) [DEHYDROISO-ALPHA-LAPACHONE], the MIC against Escherichia coli is over 78.1 µg/mL; in the experiment on Bacillus cereus it was over 78.1 µg/mL; in experiment [1], 40.7 µM (≈ 9.77 µg/mL); in the experiment with Staphylococcus aureus it was 326 µM. In experiment [1], the MBC was 81.4 µM (≈ 19.6 µg/mL).
Regarding `C=C(C)c1cc2c(o1)C(=O)c1ccccc1C2=O`, the MIC with Escherichia coli was 328 µM; with Bacillus cereus, over 78.1 µg/mL; in experiment [1], 41 µM (≈ 9.77 µg/mL); with Staphylococcus aureus it was 328 µM. Moreover, the MBC in experiment [1] came to 164 µM (≈ 39.1 µg/mL).
`CC(C)=CCC1(O)C(=O)c2ccccc2C1=O`: the MIC was over 78.1 µg/mL against Escherichia coli, over 78.1 µg/mL in the experiment on Bacillus cereus, 120 µM (≈ 27.6 µg/mL) in experiment [1] and 240 µM with Staphylococcus aureus. For the same molecule, the MBC in experiment [1] worked out at 240 µM (≈ 55.2 µg/mL).
`CC(C)(O[N+](=O)[O-])C1CC2=C(O1)C(=O)c1ccccc1C2=O` (stereo not drawn): the minimal inhibitory concentration (MIC) with Escherichia coli was over 78.1 µg/mL; in the experiment with Bacillus cereus it was over 78.1 µg/mL; in experiment [1] it was 34 µM (≈ 10.3 µg/mL); against Staphylococcus aureus, 272 µM. The molecule also came in with an MBC in experiment [1] of 136 µM (≈ 41.3 µg/mL).
